Patent publication EP0561850B1, “7-SUBSTITUTED-6-FLUORO-1,4-DIHYDRO-4-OXO-QUINOLINE-3-CARBOXYLIC ACID COMPOUNDS USEFUL AS ANTIBACTERIAL AGENTS” (priority 1990, dated 1992)
Values after ≈ are worked out from the molar mass of the structure shown. Structures can show the parent of a compound that is named as a salt. Where two headings read alike, the source gives them in different places.

Assays:
Sa 127M = assay: Microbroth dilution (MHB) method, NCCLS M7-A2; format: cell-based, Staphylococcus aureus; conditions: Staphylococcus aureus, inoculum 5 x 10^5 cfu/ml, 35 °C/18 hr, read-out: MIC
Protocol: (§1) The test organisms were obtained from ATCC and clinical laboratories. The 96-well microtitre plates containing […] of serially diluted test compounds in Mueller Hinton Broth (MHB) (conc. range 64-0.03 µg/ml) were inoculated with […] of bacterial suspension in MHB so that an inoculum size of 5 x 10^5 cfu/ml was achieved.
(§2) EC. (S- 63): Eschericia coli Ecl. (S- 130): Enterobacter cloacae Pa. (S- 67): Pseudomonas aeruginosa Kp. (S- 80): Klebsiella pneumoniae Pr.
(§3) Microbroth Dilution (MHB) method; Inoculum, 5 x 10^5 cfu/ml; Incubation 35 °C/18 hr

[1] = system: Fusobacterium mortiferum AN-13; assay: In vitro antimicrobial activity against anaerobes, broth microdilution; format: cell-based
Text: (§4) The compounds of the invention display antibacterial activity when tested by the broth microdilution method as described in the NCCLS publications M7-A, M11-A and M17-P of the year 1985. For aerobic microorganisms, a cation supplemented Mueller Hinton Broth (BBL) was used whereas the Anaerobe Broth MIC (Difco) was used for anaerobic microorganisms. An agar Dilution method was employed for certain aerobic microorganisms using Mueller Hinton II Agar (BBL) and a Cathra multipoint inoculating device which delivered 10^4 cfu/spot of the inoculum on the agar surface. MICs were read after 16-18 hours and 48 hours of incubation in case of microbes growing aerobically and anaerobically respectively.
(§5) By use of the above method, the following minimum inhibitory concentration values (MICs in µg/ml) were obtained: Table 1, against microbes growing aerobically; Table 2, against microbes growing anaerobically; Table 3, against methicillin resistant Staphylococcus aureus and quinoline resistant-methicillin resistant Staphylococcus aureus.

[2] = system: Streptococcus intermedius AN-19; assay: as above; format: cell-based
Text: as §4, §5

[3] = system: Peptostreptococcus asaccharolyticus AN-16; assay: as above; format: cell-based; conditions: Peptoniphilus asaccharolyticus
Text: as §4, §5

Bacteroides fagilis AN-2 = assay: as above; format: cell-based
Text: as §4, §5

[4] = system: Propionobacterium acne AN-17; assay: as above; format: cell-based
Text: as §4, §5

[5] = system: Pseudomonas aeruginosa S-67; assay: Microbroth dilution (MHB) method, NCCLS M7-A2; format: cell-based; conditions: Pseudomonas aeruginosa, S67
Protocol: as §1, §2, §3

Eschericia coli S-63 = assay: Microbroth dilution (MHB) method, NCCLS M7-A2; format: cell-based; conditions: Ec S-63, inoculum 5 x 10^5 cfu/ml, 35 °C/18 hr, read-out: MIC
Protocol: as §1, §2, §3

[6] = system: Providencia rettgeri S-121; assay: Microbroth dilution (MHB) method, NCCLS M7-A2; format: cell-based; conditions: Providencia rettgeri, S121, Pr S-121, inoculum 5 x 10^5 cfu/ml, 35 °C/18 hr, read-out: MIC
Protocol: as §1, §2, §3

[7] = system: Klebsiella pneumoniae S-80; assay: Microbroth dilution (MHB) method, NCCLS M7-A2; format: cell-based; conditions: Klebsiella pneumoniae, S80
Protocol: as §1, §2, §3

[8] = system: Staphylococcus aureus S-127; assay: In vitro antimicrobial activity against aerobes, broth microdilution (NCCLS 1985); format: cell-based; conditions: S127, read after 16-18 hours
Protocol: as §4, with “For” for “The compounds of the invention display antibacterial activity when tested by the broth microdilution method as described in the NCCLS publications M7-A, M11-A and M17-P of the year 1985. For”

[9] = system: Quinoline Resistant MRSAs (QRMRSAs); assay: In vitro antimicrobial activity against quinoline resistant MRSA; format: cell-based; conditions: Staphylococcus aureus; QRMRSA (8 C.I.), C.I. = Clinical Isolates
Protocol: as §4, with “For” for “The compounds of the invention display antibacterial activity when tested by the broth microdilution method as described in the NCCLS publications M7-A, M11-A and M17-P of the year 1985. For”

[10] = system: Methicillin Resistant S. aureus (MRSAs); assay: In vitro antimicrobial activity against methicillin resistant S. aureus; format: cell-based; conditions: Staphylococcus aureus; MRSA (6 C.I.), C.I. = Clinical Isolates
Protocol: as §4, with “For” for “The compounds of the invention display antibacterial activity when tested by the broth microdilution method as described in the NCCLS publications M7-A, M11-A and M17-P of the year 1985. For”

[11] = AN13, Fusobacterium mortiferum AN-13, anaerobes, read after 48 hours, read-out: MIC
[12] = AN19, Streptococcus intermedius AN-19, anaerobes, read after 48 hours, read-out: MIC
[13] = AN16, Peptostreptococcus asaccharolyticus AN-16, anaerobes, read after 48 hours, read-out: MIC
[14] = AN2, Bacteroides fagilis AN-2, anaerobes, read after 48 hours, read-out: MIC
[15] = Propionobacterium acne AN-17, anaerobes, read after 48 hours, read-out: MIC

Row | MIC [8] | MIC [9] | MIC [1, 11] | MIC [2, 12] | MIC [3, 13] | MIC (Bacteroides fagilis AN-2; [14]) | MIC [4, 15] | MIC [10] | SMILES | further results
1 |  |  |  |  |  |  |  |  | O=C(O)c1cn(C2CC2)c2cc(N3CCNCC3)c(F)cc2c1=O [Ciprofloxacin, reference compound] | MIC (Sa 127M): 8 µg/mL (≈ 24.1 µM); MIC ([1]; Fusobacterium mortiferum, AN13, 48 h): 16 µg/mL (≈ 48.3 µM); MIC ([2]; Streptococcus intermedius, AN19, 48 h): 1 µg/mL (≈ 3.02 µM); MIC ([3]; AN16, 48 h): 4 µg/mL (≈ 12.1 µM); MIC (Bacteroides fagilis AN-2; Bacteroides, AN2, 48 h): 16 µg/mL (≈ 48.3 µM); MIC ([4]; 48 h): 0.5 µg/mL (≈ 1.51 µM); MIC [5]: 0.25 µg/mL (≈ 0.754 µM); MIC (Eschericia coli S-63): ≤ 0.008 µg/mL; MIC [6]: 0.015 µg/mL (≈ 0.0453 µM); MIC [7]: 0.015 µg/mL (≈ 0.0453 µM)
2 | ≤ 0.06 µg/mL |  |  |  |  |  |  |  | CCOC(=O)c1cn(C2CC2)c2nc(N3CC[C@H](n4ccnn4)C3)c(F)cc2c1=O [Example 4, Ethyl 1-cyclopropyl-6-fluoro-7-[3(S)-(1,2,3-triazol-1-yl)pyrrolidin-1-yl]-1,4-dihydro-4-oxo-1,8-naphthyridine-3-carboxylate] | 
3 | ≤ 0.03 µg/mL |  |  |  |  |  |  |  | O=C(O)c1cn(C2CC2)c2nc(N3CC[C@H](n4ccnn4)C3)c(F)cc2c1=O [Example 5] | 
4 | 0.008 µg/mL |  |  |  |  |  |  |  | NC1CN(c2nc3c(cc2F)c(=O)c(C(=O)O)cn3C2CC2)CC1n1ccnn1 (stereo not drawn) [Example 7, 7-[cis-3-Amino-4-(1,2,3-triazol-1-yl)pyrrolidin-1-yl]-1-cyclopropyl-6-fluoro-1,4-dihdyro-4-oxo-1,8-naphthyridine-3-carboxylic acid hydrochloride] | 
5 |  | 0.5 to 2 µg/mL (≈ 1.2 to 4.8 µM) | 0.06 µg/mL (≈ 0.144 µM) | 0.06 µg/mL (≈ 0.144 µM) | 0.06 µg/mL (≈ 0.144 µM) | 1 µg/mL (≈ 2.4 µM) | ≤ 0.03 µg/mL | 0.004 to 0.008 µg/mL (≈ 0.00961 to 0.0192 µM) | Nc1c(F)c(N2CCC(n3ccnn3)C2)c(F)c2c1c(=O)c(C(=O)O)cn2C1CC1 (stereo not drawn) [Example 11, 5-Amino-1-cyclopropyl-6,8-difluoro-7-[3-(1,2,3-triazol-1-yl)-pyrrolidin-1-yl]-1,4-dihydro-4-oxo-quinoline-3-carboxylic acid] | 
6 | 0.008 µg/mL (≈ 0.0192 µM) | 0.5 to 2 µg/mL (≈ 1.2 to 4.8 µM) | 0.06 µg/mL (≈ 0.144 µM) | 0.12 µg/mL (≈ 0.288 µM) | 0.06 µg/mL (≈ 0.144 µM) | 1 µg/mL (≈ 2.4 µM) | 0.06 µg/mL (≈ 0.144 µM) | 0.004 to 0.008 µg/mL (≈ 0.00961 to 0.0192 µM) | Nc1c(F)c(N2CC[C@H](n3ccnn3)C2)c(F)c2c1c(=O)c(C(=O)O)cn2C1CC1 [Example 12, 5-Amino-1-cyclopropyl-6,8-difluoro-7-[3S-(1,2,3-triazol-1-yl)-pyrrolidin-1-yl]-1,4-dihydro-4-oxo-quinoline-3-carboxylic acid] | 
7 | 0.008 µg/mL (≈ 0.0192 µM) |  |  |  |  |  |  |  | Nc1c(F)c(N2CC[C@@H](n3ccnn3)C2)c(F)c2c1c(=O)c(C(=O)O)cn2C1CC1 [Example 13, 5-Amino-1-cyclopropyl-6,8-difluoro-7-[3R-(1,2,3-triazol-1-yl)-pyrrolidin-1-yl)-1,4-dihydro-4-oxo-quinoline-3-carboxylic acid] | 
8 | ≤ 0.015 µg/mL | 1 to 8 µg/mL (≈ 2.05 to 16.4 µM) | 2 µg/mL (≈ 4.09 µM) | 0.06 µg/mL (≈ 0.123 µM) | 0.12 µg/mL (≈ 0.246 µM) | > 64 µg/mL | 0.06 µg/mL (≈ 0.123 µM) | 0.008 to 0.03 µg/mL (≈ 0.0164 to 0.0614 µM) | Nc1c(F)c(N2CCC(n3ccnn3)C2)c(F)c2c1c(=O)c(C(=O)O)cn2-c1ccc(F)cc1F (stereo not drawn) [Example 14, 5-Amino-1-(2,4-difluorophenyl)-6,8-difluoro-7-[3-(1,2,3-triazol-1-yl)pyrrolidin-1-yl]-1,4-dihydro-4-oxo-quinoline-3 carboxylic acid] | 
9 | 0.015 µg/mL (≈ 0.0307 µM) | 1 to 16 µg/mL (≈ 2.05 to 32.8 µM) |  |  |  |  |  | 0.008 to 0.015 µg/mL (≈ 0.0164 to 0.0307 µM) | Nc1c(F)c(N2CC[C@H](n3ccnn3)C2)c(F)c2c1c(=O)c(C(=O)O)cn2-c1ccc(F)cc1F [Example 15] | 
10 | 0.015 µg/mL (≈ 0.0307 µM) |  |  |  |  |  |  |  | Nc1c(F)c(N2CC[C@@H](n3ccnn3)C2)c(F)c2c1c(=O)c(C(=O)O)cn2-c1ccc(F)cc1F [Example 16, 5-Amino-1-(2,4-difluorophenyl)-6,8-difluoro-7-[3R-(1,2,3-triazol-1-yl)-pyrrolidin-1-yl]-1,4-dihydro-4-oxo-quinoline-3-carboxylic acid] | 
11 | 0.06 µg/mL (≈ 0.153 µM) | 4 to 16 µg/mL (≈ 10.2 to 40.8 µM) | 0.5 µg/mL (≈ 1.27 µM) | 0.5 µg/mL (≈ 1.27 µM) | 4 µg/mL (≈ 10.2 µM) | 2 µg/mL (≈ 5.1 µM) | 1 µg/mL (≈ 2.55 µM) | 0.03 to 0.12 µg/mL (≈ 0.0765 to 0.306 µM) | C[C@@H]1CN(c2c(F)c(N)c3c(=O)c(C(=O)O)cn(C4CC4)c3c2F)C[C@H](C)N1 [Sparfloxacin, reference compound] | 
12 |  | 2 to 16 µg/mL (≈ 4.95 to 39.6 µM) |  |  |  |  |  | 0.015 to 0.03 µg/mL (≈ 0.0371 to 0.0742 µM) | NC1CCN(c2nc3c(cc2F)c(=O)c(C(=O)O)cn3-c2ccc(F)cc2F)C1 (stereo not drawn) [Tosufloxacin, reference compound] | 
